Like-named read-outs stand apart in the source and are kept apart here. One block for each compound: values may come before it.
Experiments:
[1] = target: T1, KAT-2 (kynurenine aminotransferase-2) (Homo sapiens, UniProt Q8N5Z0); test: HPLC assay of KYN to KYNA conversion by recombinant human KAT-2; assay type: biochemical
T1 construct: gene AADAT; recombinant KAT-2

[2] = target: T1, KAT-2 (kynurenine aminotransferase-2); test: HPLC assay of KYN to KYNA conversion by recombinant human KAT-2, % inhibition at […]; assay type: biochemical

T1 sequence (Q8N5Z0 30-425): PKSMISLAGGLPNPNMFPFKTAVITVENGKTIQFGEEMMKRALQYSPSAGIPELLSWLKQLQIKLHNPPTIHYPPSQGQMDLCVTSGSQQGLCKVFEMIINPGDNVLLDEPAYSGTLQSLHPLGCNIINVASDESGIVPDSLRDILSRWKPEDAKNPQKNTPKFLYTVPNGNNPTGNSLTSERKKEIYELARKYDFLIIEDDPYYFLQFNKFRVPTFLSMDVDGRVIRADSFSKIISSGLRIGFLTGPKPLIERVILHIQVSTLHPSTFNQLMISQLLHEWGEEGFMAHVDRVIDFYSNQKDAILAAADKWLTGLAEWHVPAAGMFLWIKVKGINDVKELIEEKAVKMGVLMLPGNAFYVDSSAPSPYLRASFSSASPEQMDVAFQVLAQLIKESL

Compound: N[C@H]1Cc2ccccc2N(O)C1=O [PF-04859989]
IC50 [1]: 1 to 3 µM

IC50 ([1]; read-out: IC50): 15 to 20 µM
Compound: C[C@H]1COc2c(N3CCN(N)CC3)c(F)cc3c(=O)c(C(=O)O)cn1c23 [BFF-122]

inhibition at 200 µM [2]: 20%
Compound: CCS(=O)(=O)c1ccc(C(=O)C[C@H](N)C(=O)O)cc1 [(S)-ESBA, (S)-4-(Ethylsulfonyl)benzoylalanine]

Source: PMC6273595, “Study of the Activity and Possible Mechanism of Action of a Reversible Inhibitor of Recombinant Human KAT-2: A Promising Lead in Neurodegenerative and Cognitive Disorders” (Molecules, 2016)
